Assay results published in US5254801A, “Heterologous dominant conditional lethal gene which is a phosphonate monoester hydrolase and use thereof in plants” (Monsanto Company, priority 1990, dated 1993).

How the values were obtained:
PG2982 = test: Growth on glyceryl glyphosate as sole phosphate source; assay type: cell-based, Pseudomonas caryophilli; conditions: strain PG2982; 0.2 mM in DF minimal medium
Protocol: (§1) Bacteria capable of degrading glyphosate are known (Hallas et al., 1988; Malik et al., 1989; and Moore et al., 1983; Heitkamp et al., 1990). Five of these bacteria (PG2482, LBAA, T10, T12 and CP4) and four strains of E. coli were screened for the rapid degradation of glyceryl glyphosate into inorganic phosphate. The bacteria were inoculated into 2 ml Dworkin-Foster(DF) minimal medium containing glucose, sodium gluconate and potassium citrate (each 0.1%) as carbon source and containing 0.2 mM glyceryl glyphosate as a phosphate source. The Dworkin-Foster minimal medium was made by combining 1 liter sterile H2 O with 1 ml each of A, B, C, E and F, 10 ml D, C-sources to final concentration of 0.1% each and P-source to 0.2 mM.
Bacteria which grew in this medium using glyceryl glyphosate as a sole phosphate source had the ability to cleave both the ester and the phosphonate bond to release the free phosphate. For these bacteria to be useful in the present invention, the first step in the mineralization of glyceryl glyphosate needed is the hydrolysis of the phosphonate ester. […] After a three hour incubation period, the cells were pelleted in a microfuge and the supernatant injected onto an HPLC anion exchange column and glyphosate analyzed as described above. […] The pellet extract was then analyzed for glyphosate product as described above. […]

[1] = Storage stability of radioactive glyceryl glyphosate; assay type: physicochemical; conditions: radioactive compound stored at -20° C. over a period of 3 months
T12 = test: Growth on glyceryl glyphosate as sole phosphate source; assay type: cell-based; conditions: strain T12; 0.2 mM in DF minimal medium
Protocol: as §1
(§2) Bacteria which grew in this medium using glyceryl glyphosate as a sole phosphate source had the ability to cleave both the ester and the phosphonate bond to release the free phosphate. For these bacteria to be useful in the present invention, the first step in the mineralization of glyceryl glyphosate needed is the hydrolysis of the phosphonate ester. Each of the three bacteria which utilized glyceryl glyphosate as a phosphate source were then assayed for a phosphonate monoester hydrolase activity using an in vivo (3-^14 C-) glyceryl glyphosate assay. A 150 ml culture of each bacteria was grown in DF minimal medium with 0.2 mM HK2 PO4 as a phosphate source in a 500 ml flask, 30° C., with shaking. The bacteria were pelleted by centrifugation at 5,000×g for 10 min and resuspended at 10 mg fresh weight/ml. An assay mix included 50 μl cells plus 10 μl (3-^14 C-) glyceryl glyphosate (10,000 cpm/μl) and kept at 30° C. with shaking. After a three hour incubation period, the cells were pelleted in a microfuge and the supernatant injected onto an HPLC anion exchange column and glyphosate analyzed as described above. The pellet was washed twice with 1 ml 10 mM HEPES, pH 7.0, and resuspended in 25 μl buffer. The cells were lysed with 25 μl quench and the debris pelleted in a microfuge. The pellet extract was then analyzed for glyphosate product as described above. Glyphosate was found in the pellet extracts of these three bacteria indicating the presence of a phosphonate monoester hydrolase activity in these organisms.

[2] = tested on: E. coli MM294, JM101, JM101/MPU+, SR200/MPU; test: as above; assay type: cell-based; conditions: E. coli strains; 0.2 mM in DF minimal medium
Protocol: as §1, §2

LBAA = test: as above; assay type: cell-based; conditions: strain LBAA; 0.2 mM in DF minimal medium
Protocol: as §1, §2

CP4 = test: as above; assay type: cell-based; conditions: strain CP4; 0.2 mM in DF minimal medium
Protocol: as §1, §2

T10 = test: as above; assay type: cell-based; conditions: strain T10; 0.2 mM in DF minimal medium
Protocol: as §1, §2

PG2982 crude extract = test: In vitro radioactive hydrolysis assay in crude extracts; assay type: biochemical, Pseudomonas caryophilli; conditions: strain PG2982
Excerpt: The enzymatic reaction can be assayed using labelled (3-^14 C-) glyceryl glyphosate as a substrate and following the conversion to (3-^14 C-)glyphosate as a product using a high pressure liquid chromatography system with a radioactive detector. This assay is the most specific for the phosphonate monoester hydrolase enzymes useful for conditional cell lethality. An enzyme assay consists of 40,000 cpm of labelled (3-^14 C-) glyceryl glyphosate (obtained from NEN Biochemicals), the PEH sample in buffer and buffer to 100 μl final volume. The assay buffer is 10 mM Bis-Tris propane, pH 9.0, plus 100 mM KCl. The reaction is run for 1 hour at 30° C. and then stopped by the addition of 100 μl "quench" which is 100 mM sodium acetate, pH 5.5, in ethanol. […] The radioactivity of the peaks is measured and integrated by a post-column detector. […]
Bacteria which grew in this medium using glyceryl glyphosate as a sole phosphate source had the ability to cleave both the ester and the phosphonate bond to release the free phosphate. […] After a three hour incubation period, the cells were pelleted in a microfuge and the supernatant injected onto an HPLC anion exchange column and glyphosate analyzed as described above. […] The pellet extract was then analyzed for glyphosate product as described above. […]

Compound: O=C(O)CNCP(=O)(O)OCC(O)CO (centres unmarked) [glyceryl glyphosate, glycine, N-([hydroxy (2,3 dihydroxy propoxy)phosphonyl]methyl)]
- Glyceryl Glyphosate as Phosphate Source (PG2982): Yes
- Storage stability [1]: unstable
- Glyceryl Glyphosate as Phosphate Source (T12): No
- Glyceryl Glyphosate as Phosphate Source [2]: No
- Glyceryl Glyphosate as Phosphate Source (LBAA): Yes
- Glyceryl Glyphosate as Phosphate Source (CP4): No
- Glyceryl Glyphosate as Phosphate Source (T10): Yes
- Hydrolysis of Glyceryl Glyphosate into Glyphosate in Crude Extracts (PG2982 crude extract): Yes
